Experimental data reported in the NIST ThermoML archive (doi:10.1021/je501041r).
Numbers after ± are expanded uncertainties.

Experiment: not given
Conditions: 323.15 K; 101 kPa; Liquid; Capillary tube (Ostwald / Ubbelohde) method

| viscosity [mPa·s] | SMILES |
| --- | --- |
| 1.117 ± 0.013 | CCCO [propan-1-ol] |

Same assay, conditions: 323.15 K; 101 kPa; Liquid; Vibrating tube method

| mass density [kg/m3] | SMILES |
| --- | --- |
| 666.85 ± 2 | CC(C)CC(C)(C)C [2,2,4-trimethylpentane] |
| 792.75 ± 2 | CCCCCO [pentan-1-ol] |
| 800.93 ± 2 | CCCCCCCO [heptan-1-ol] |
| 797.02 ± 2 | CCCCCCO [hexan-1-ol] |
| 779.43 ± 2 | CCCO [propan-1-ol] |

Experiment: xn = mol fraction of the nth substance listed
Conditions: 298.15 K; 101 kPa; Liquid; Capillary tube (Ostwald / Ubbelohde) method; x1 = 1

| viscosity [mPa·s] | SMILES |
| --- | --- |
| 0.478 ± 0.006 | CC(C)CC(C)(C)C [2,2,4-trimethylpentane] + CCCCCCCO |
| 0.478 ± 0.006 | CC(C)CC(C)(C)C [2,2,4-trimethylpentane] + CCCCCO |
| 0.478 ± 0.006 | CC(C)CC(C)(C)C [2,2,4-trimethylpentane] + CCCCCCO |

Same assay, conditions: 298.15 K; 101 kPa; Liquid; Capillary tube (Ostwald / Ubbelohde) method; x2 = 0

| viscosity [mPa·s] | SMILES |
| --- | --- |
| 1.955 ± 0.023 | CCCO [propan-1-ol] + CC(C)CC(C)(C)C |

Same assay, conditions: 298.15 K; 101 kPa; Liquid; Vibrating tube method; x1 = 1

| mass density [kg/m3] | SMILES |
| --- | --- |
| 687.82 ± 2 | CC(C)CC(C)(C)C [2,2,4-trimethylpentane] + CCCCCCCO |
| 687.82 ± 2 | CC(C)CC(C)(C)C [2,2,4-trimethylpentane] + CCCCCO |
| 687.82 ± 2 | CC(C)CC(C)(C)C [2,2,4-trimethylpentane] + CCCCCCO |

Same assay, conditions: 298.15 K; 101 kPa; Liquid; Vibrating tube method; x2 = 0

| mass density [kg/m3] | SMILES |
| --- | --- |
| 800.03 ± 2 | CCCO [propan-1-ol] + CC(C)CC(C)(C)C |

Same assay, conditions: 303.15 K; 101 kPa; Liquid; Capillary tube (Ostwald / Ubbelohde) method; x1 = 1

| viscosity [mPa·s] | SMILES |
| --- | --- |
| 0.453 ± 0.005 | CC(C)CC(C)(C)C [2,2,4-trimethylpentane] + CCCCCCCO |
| 0.453 ± 0.005 | CC(C)CC(C)(C)C [2,2,4-trimethylpentane] + CCCCCO |
| 0.453 ± 0.005 | CC(C)CC(C)(C)C [2,2,4-trimethylpentane] + CCCCCCO |

Same assay, conditions: 303.15 K; 101 kPa; Liquid; Capillary tube (Ostwald / Ubbelohde) method; x2 = 0

| viscosity [mPa·s] | SMILES |
| --- | --- |
| 1.737 ± 0.02 | CCCO [propan-1-ol] + CC(C)CC(C)(C)C |

Same assay, conditions: 303.15 K; 101 kPa; Liquid; Vibrating tube method; x1 = 1

| mass density [kg/m3] | SMILES |
| --- | --- |
| 683.68 ± 2 | CC(C)CC(C)(C)C [2,2,4-trimethylpentane] + CCCCCCCO |
| 683.68 ± 2 | CC(C)CC(C)(C)C [2,2,4-trimethylpentane] + CCCCCO |
| 683.68 ± 2 | CC(C)CC(C)(C)C [2,2,4-trimethylpentane] + CCCCCCO |

Same assay, conditions: 303.15 K; 101 kPa; Liquid; Vibrating tube method; x2 = 0

| mass density [kg/m3] | SMILES |
| --- | --- |
| 796.01 ± 2 | CCCO [propan-1-ol] + CC(C)CC(C)(C)C |

Same assay, conditions: 308.15 K; 101 kPa; Liquid; Capillary tube (Ostwald / Ubbelohde) method; x1 = 1

| viscosity [mPa·s] | SMILES |
| --- | --- |
| 0.429 ± 0.005 | CC(C)CC(C)(C)C [2,2,4-trimethylpentane] + CCCCCCCO |
| 0.429 ± 0.005 | CC(C)CC(C)(C)C [2,2,4-trimethylpentane] + CCCCCO |
| 0.429 ± 0.005 | CC(C)CC(C)(C)C [2,2,4-trimethylpentane] + CCCCCCO |

Same assay, conditions: 308.15 K; 101 kPa; Liquid; Capillary tube (Ostwald / Ubbelohde) method; x2 = 0

| viscosity [mPa·s] | SMILES |
| --- | --- |
| 1.548 ± 0.018 | CCCO [propan-1-ol] + CC(C)CC(C)(C)C |

Same assay, conditions: 308.15 K; 101 kPa; Liquid; Vibrating tube method; x1 = 1

| mass density [kg/m3] | SMILES |
| --- | --- |
| 679.52 ± 2 | CC(C)CC(C)(C)C [2,2,4-trimethylpentane] + CCCCCCCO |
| 679.52 ± 2 | CC(C)CC(C)(C)C [2,2,4-trimethylpentane] + CCCCCO |
| 679.52 ± 2 | CC(C)CC(C)(C)C [2,2,4-trimethylpentane] + CCCCCCO |

Same assay, conditions: 308.15 K; 101 kPa; Liquid; Vibrating tube method; x2 = 0

| mass density [kg/m3] | SMILES |
| --- | --- |
| 791.92 ± 2 | CCCO [propan-1-ol] + CC(C)CC(C)(C)C |

Same assay, conditions: 313.15 K; 101 kPa; Liquid; Capillary tube (Ostwald / Ubbelohde) method; x1 = 1

| viscosity [mPa·s] | SMILES |
| --- | --- |
| 0.408 ± 0.005 | CC(C)CC(C)(C)C [2,2,4-trimethylpentane] + CCCCCCCO |
| 0.408 ± 0.005 | CC(C)CC(C)(C)C [2,2,4-trimethylpentane] + CCCCCO |
| 0.408 ± 0.005 | CC(C)CC(C)(C)C [2,2,4-trimethylpentane] + CCCCCCO |

Same assay, conditions: 313.15 K; 101 kPa; Liquid; Capillary tube (Ostwald / Ubbelohde) method; x2 = 0

| viscosity [mPa·s] | SMILES |
| --- | --- |
| 1.384 ± 0.016 | CCCO [propan-1-ol] + CC(C)CC(C)(C)C |

Same assay, conditions: 313.15 K; 101 kPa; Liquid; Vibrating tube method; x1 = 1

| mass density [kg/m3] | SMILES |
| --- | --- |
| 675.32 ± 2 | CC(C)CC(C)(C)C [2,2,4-trimethylpentane] + CCCCCCCO |
| 675.32 ± 2 | CC(C)CC(C)(C)C [2,2,4-trimethylpentane] + CCCCCO |
| 675.32 ± 2 | CC(C)CC(C)(C)C [2,2,4-trimethylpentane] + CCCCCCO |

Same assay, conditions: 313.15 K; 101 kPa; Liquid; Vibrating tube method; x2 = 0

| mass density [kg/m3] | SMILES |
| --- | --- |
| 787.79 ± 2 | CCCO [propan-1-ol] + CC(C)CC(C)(C)C |

Same assay, conditions: 318.15 K; 101 kPa; Liquid; Capillary tube (Ostwald / Ubbelohde) method; x1 = 1

| viscosity [mPa·s] | SMILES |
| --- | --- |
| 0.388 ± 0.005 | CC(C)CC(C)(C)C [2,2,4-trimethylpentane] + CCCCCCCO |
| 0.388 ± 0.005 | CC(C)CC(C)(C)C [2,2,4-trimethylpentane] + CCCCCO |
| 0.388 ± 0.005 | CC(C)CC(C)(C)C [2,2,4-trimethylpentane] + CCCCCCO |

Same assay, conditions: 318.15 K; 101 kPa; Liquid; Capillary tube (Ostwald / Ubbelohde) method; x2 = 0

| viscosity [mPa·s] | SMILES |
| --- | --- |
| 1.241 ± 0.015 | CCCO [propan-1-ol] + CC(C)CC(C)(C)C |

Same assay, conditions: 318.15 K; 101 kPa; Liquid; Vibrating tube method; x1 = 1

| mass density [kg/m3] | SMILES |
| --- | --- |
| 671.1 ± 2 | CC(C)CC(C)(C)C [2,2,4-trimethylpentane] + CCCCCCCO |
| 671.1 ± 2 | CC(C)CC(C)(C)C [2,2,4-trimethylpentane] + CCCCCO |
| 671.1 ± 2 | CC(C)CC(C)(C)C [2,2,4-trimethylpentane] + CCCCCCO |

Same assay, conditions: 318.15 K; 101 kPa; Liquid; Vibrating tube method; x2 = 0

| mass density [kg/m3] | SMILES |
| --- | --- |
| 783.65 ± 2 | CCCO [propan-1-ol] + CC(C)CC(C)(C)C |

Same assay, conditions: 323.15 K; 101 kPa; Liquid; Capillary tube (Ostwald / Ubbelohde) method; x1 = 1

| viscosity [mPa·s] | SMILES |
| --- | --- |
| 0.369 ± 0.005 | CC(C)CC(C)(C)C [2,2,4-trimethylpentane] + CCCCCCCO |
| 0.369 ± 0.005 | CC(C)CC(C)(C)C [2,2,4-trimethylpentane] + CCCCCO |
| 0.369 ± 0.005 | CC(C)CC(C)(C)C [2,2,4-trimethylpentane] + CCCCCCO |

Same assay, conditions: 323.15 K; 101 kPa; Liquid; Capillary tube (Ostwald / Ubbelohde) method; x2 = 0

| viscosity [mPa·s] | SMILES |
| --- | --- |
| 1.117 ± 0.013 | CCCO [propan-1-ol] + CC(C)CC(C)(C)C |

Same assay, conditions: 323.15 K; 101 kPa; Liquid; Vibrating tube method; x1 = 1

| mass density [kg/m3] | SMILES |
| --- | --- |
| 666.85 ± 2 | CC(C)CC(C)(C)C [2,2,4-trimethylpentane] + CCCCCCCO |
| 666.85 ± 2 | CC(C)CC(C)(C)C [2,2,4-trimethylpentane] + CCCCCO |
| 666.85 ± 2 | CC(C)CC(C)(C)C [2,2,4-trimethylpentane] + CCCCCCO |

Same assay, conditions: 323.15 K; 101 kPa; Liquid; Vibrating tube method; x2 = 0

| mass density [kg/m3] | SMILES |
| --- | --- |
| 779.43 ± 2 | CCCO [propan-1-ol] + CC(C)CC(C)(C)C |
